Measured values: BigSolDB 2.1

NC(=O)c1ccncc1
solubility (mole fraction)
Settings	278.15 K	283.15 K	288.15 K	293.15 K	298.15 K	303.15 K	308.15 K	313.15 K	318.15 K	323.15 K
in DMAc	0.114	0.129	0.147	0.168	0.19	0.213	0.236	0.256	0.278	0.299
in DMF	0.13	0.135	0.147	0.157	0.17	0.181	0.193	0.208	0.221	0.24
in THF	0.0108	0.012	0.0143	0.0167	0.0194	0.0218	0.0247	0.0276	0.0308	0.0344
in acetone	0.00012	0.00014	0.00017	0.00021	0.00025	0.00029	0.00034	0.00039	0.00047	0.00057
in acetonitrile	0.00251	0.00313	0.00392	0.00473	0.00572	0.00695	0.00841	0.0102	0.0125	0.0152
in ethanol	0.0191	0.0221	0.0266	0.0307	0.0347	0.0407	0.0461	0.0548	0.0664	0.0796
in ethyl acetate	0.00272	0.00341	0.00414	0.00504	0.0062	0.00754	0.0105	0.0138	0.0172	0.0218
in isopropanol	0.0156	0.0182	0.0211	0.0253	0.0291	0.034	0.0381	0.0465	0.0559	0.0669
in isopropyl acetate	0.00204	0.00217	0.0025	0.00283	0.00328	0.00397	0.00505	0.00616	0.00734	0.00871
in methanol	0.0336	0.0392	0.0439	0.0515	0.0602	0.0678	0.0773	0.0911	0.103	0.122
in methyl acetate	0.00372	0.00431	0.00542	0.00668	0.00826	0.00969	0.0127	0.0152	0.0184	0.0218
in n-butanol	0.0172	0.0189	0.022	0.0248	0.0284	0.0319	0.0359	0.041	0.0482	0.0565
in n-pentanol	0.0126	0.0136	0.0152	0.0177	0.0204	0.0234	0.0279	0.033	0.039	0.046
in n-propanol	0.0218	0.0242	0.0275	0.0324	0.0374	0.0418	0.0455	0.0541	0.0639	0.0764
in n-propyl acetate	0.00198	0.00249	0.00323	0.00404	0.00494	0.00615	0.0072	0.00832	0.00937	0.0109
